Assay results from patent publication US8452543B2, “High throughput screening for antimicrobial dosing regimens” (priority 2005, dated 2013).
≈ marks a conversion by molar mass, not a printed value. Read-outs that look alike come from different tables or passages of the source.

Key:
P. aeruginosa ATCC 27853 = assay: MIC/MBC, modified macrobroth dilution; assay type: cell-based, Pseudomonas aeruginosa
Protocol: (§1) The final concentration of bacteria in each macrobroth dilution tube was approximately 5×10^5 cfu/ml of Ca-MHB. Serial twofold dilutions of meropenem were used. […] Samples (50 μl) from clear tubes and the cloudy tube with the highest drug concentration were plated on Mueller-Hinton agar (MHA) plates (Hardy Diagnostics, Santa Maria, Calif.). […] Drug carry-over effect was assessed by visual inspection of the distribution of colonies on media plates. The studies were conducted in duplicate and repeated at least once on a separate day.

[1] = test system: P. aeruginosa PA 27853 and resistant isolates MR1, MR2, MR3; assay: microbe, parasite or virus in culture; assay type: cell-based, Pseudomonas aeruginosa; settings: for MIC: Pseudomonas aeruginosa
Protocol: as §1, with “Minimum inhibitory concentration (MIC)/minimum bactericidal concentration (MBC) were determined in Ca-MHB using a modified macrobroth dilution method as described by the CLSI (10). The final” for “The final”

[2] = test system: P. aeruginosa ATCC 27853 and its isogenic OprD− mutant (1000:1); assay: Murine pneumonia model; assay type: in vivo, mice
Protocol: Female Swiss-Webster mice (22-26 g) were used; all mice were cared for in accordance to the highest humane and ethical standards, as approved by the Institutional Animal Care and Use Committee (IACUC). The animals were housed in isolation boxes to decrease the risk of infection from extraneous pathogens. They received food and water ad libitum. The animals were rendered neutropenic by 2 intra-peritoneal injections of cyclophosphamide (Sigma, St. Louis, Mo.) 150 mg/kg on day −4 and 100 mg/kg on day −1 prior to infection; previous studies have shown that this regimen would produce neutropenia for 5 days (13, 16). Transient nephrotoxicity was induced by 1 intra-peritoneal injection of uranyl nitrate (5 mg/kg on day −2), which has been previously shown to produce a significant stable reduction in renal function for at least 7 days (21).
Each mouse was anesthetized with a single intra-peritoneal dose ([…]) of tribromoethanol (Sigma, St. Louis, Mo.), and was intubated under laryngoscopic guidance. For each mouse, the correct placement of endotracheal tube was verified by placing a cooled mirror surface close to the exit to observe water vapor condensation. A few colonies of the bacterial isolates were inoculated into Ca-MHB and incubated at 35° C. until they reached late log phase growth. The bacterial suspension was diluted to the desired concentration of approximately 10^8 CFU/ml based on absorbance at 630 nm; a mixture of wild-type and its isogenic OprD^− mutant in a 1000:1 ratio was used to mimic a heterogeneous bacterial population. The inocula (10 μl) were directly inoculated into the trachea of the anesthetized animals.
Two hours after infection, 3 mice were sacrificed by CO2 asphyxiation to ascertain the bacterial burden in lung tissues. The lung tissues were aseptically collected and homogenized in 10 ml of sterile saline. The homogenates were centrifuged at 6000×G for 15 minutes. The supernatant was discarded and the pellets were re-suspended in normal saline to 10× their original volumes in order to minimize drug carry-over effect. They were then diluted ten-fold serially and quantitatively cultured on Mueller-Hinton agar (MHA) plates (Hardy Diagnostics, Santa Maria, Calif.) and MHA plates supplemented with meropenem at 3× the MIC of the wild-type isolate. The media plates were incubated at 35° C. in a humidified incubator for up to 24 hours (for MHA plates) and 72 hours (for meropenem-supplemented MHA plates) before reading and the bacterial burden in lung tissues enumerated.
The remaining mice were observed every 8 hours for 4 days, with or without meropenem (400 mg/kg) given intra-peritoneally every 8 hours (10 mice in each group). Total bacterial burden and those with reduced susceptibility in animal lung tissues were determined in a similar manner upon death or at the end of the experiment. Susceptibility testing was repeated on representative isolates recovered from meropenem-supplemented plates to confirm the presence of resistance.

[3] = 10 mice received meropenem treatment

C[C@@H](O)[C@H]1C(=O)N2C(C(=O)O)=C(S[C@@H]3CN[C@H](C(=O)N(C)C)C3)[C@H](C)[C@H]12 [meropenem]
MBC (P. aeruginosa ATCC 27853; Pseudomonas aeruginosa, ATCC27853, P. aeruginosa isolate, read-out: MBC): 1 µg/mL (≈ 2.61 µM)
MIC (P. aeruginosa ATCC 27853; Pseudomonas aeruginosa, ATCC27853, P. aeruginosa isolate, read-out: MIC): 1 µg/mL (≈ 2.61 µM)
MIC (P. aeruginosa ATCC 27853; wild-type isolate used in vivo): 1 µg/mL (≈ 2.61 µM)
MIC ([1]; OprD− isolate used in vivo): 4 µg/mL (≈ 10.4 µM)
MIC ([1]; strain MR1 (Placebo exposure, OprD−), macrobroth method): 4 µg/mL (≈ 10.4 µM)
MIC ([1]; strain MR2 (Cmin/MIC 0.5, OprD− & Mex+), macrobroth method): 64 µg/mL (≈ 167 µM)
MIC ([1]; strain MR3 (Cmin/MIC 1.7, OprD− & Mex+), macrobroth method, read-out: MIC): 32 µg/mL (≈ 83.4 µM)
MIC ([1]; strain PA 27853, macrobroth method): 1 µg/mL (≈ 2.61 µM)
stability of resistance ([1]; resistant isolates recovered from MEM-supplemented plates): phenotypically stable
survival over 4 days ([2]; 400 mg/kg intra-peritoneally every 8 hours): 100%
animals with complete replacement of bacterial population by the OprD− mutant in lung tissue ([2]; 400 mg/kg intra-peritoneally every 8 hours, 96 hours): 30%
mice in which resistance emergence was found [2, 3]: 3 mice
mice that survived up to 96 hours [2, 3]: 10 mice
MIC of isolates recovered from meropenem-supplemented MHA plates compared to the OprD− mutant ([2]; repeat susceptibility testing): did not reveal a substantial increase in MIC
